Reference: ChEMBL document CHEMBL6074678, “Selectively Antagonizing the NOD1-Mediated Inflammatory Signaling Pathway Mitigates the Gastric Inflammation Induced by Helicobacter pylori Infection” (J Med Chem, 2024)
Active and inactive are the calls of the source. No cut-off for these calls is given here.

Key:
[1] = target: T1, Nucleotide-binding oligomerization domain-containing protein 1 (Homo sapiens, UniProt Q9Y239); test: Antagonist activity at human NOD1 expressed in HEK293 cells assessed as decrease in NF-kappaB activation; assay type: cell-based
T1 sequence (Q9Y239 whole entry): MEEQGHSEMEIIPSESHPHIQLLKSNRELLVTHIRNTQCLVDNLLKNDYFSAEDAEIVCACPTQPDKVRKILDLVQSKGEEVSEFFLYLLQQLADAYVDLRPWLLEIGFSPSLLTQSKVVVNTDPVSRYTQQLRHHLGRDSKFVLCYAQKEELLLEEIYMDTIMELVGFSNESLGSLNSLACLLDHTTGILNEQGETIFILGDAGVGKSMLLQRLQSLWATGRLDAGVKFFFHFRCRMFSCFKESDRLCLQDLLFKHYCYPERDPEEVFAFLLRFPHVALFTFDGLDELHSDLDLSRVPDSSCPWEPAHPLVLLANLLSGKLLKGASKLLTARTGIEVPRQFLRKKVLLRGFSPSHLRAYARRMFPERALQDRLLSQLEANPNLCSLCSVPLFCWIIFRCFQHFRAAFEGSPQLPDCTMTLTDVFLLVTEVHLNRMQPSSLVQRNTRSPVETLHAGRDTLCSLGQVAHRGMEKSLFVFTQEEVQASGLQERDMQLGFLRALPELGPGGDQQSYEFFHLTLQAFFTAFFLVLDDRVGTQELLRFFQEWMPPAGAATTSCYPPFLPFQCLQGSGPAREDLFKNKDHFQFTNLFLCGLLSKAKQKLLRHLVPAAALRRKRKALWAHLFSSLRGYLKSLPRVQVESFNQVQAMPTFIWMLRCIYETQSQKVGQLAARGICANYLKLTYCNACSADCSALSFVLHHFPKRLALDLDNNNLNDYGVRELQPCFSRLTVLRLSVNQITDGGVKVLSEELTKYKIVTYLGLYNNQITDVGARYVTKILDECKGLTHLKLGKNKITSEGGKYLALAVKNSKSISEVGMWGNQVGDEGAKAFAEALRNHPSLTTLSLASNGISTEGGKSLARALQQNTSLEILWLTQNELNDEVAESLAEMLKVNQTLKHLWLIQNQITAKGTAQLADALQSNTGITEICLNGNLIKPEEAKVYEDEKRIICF

[2] = Cytotoxicity against HEK-Blue hNOD1 cells by SRB assay; assay type: toxicity, cell-based; details: human
[3] = target: T2, Nucleotide-binding oligomerization domain-containing protein 1 (Homo sapiens) (UniProt Q9Y239); test: Antagonist activity at NOD1 in human THP-1 cells assessed as decrease in phosphorylated p38 level at 0.1 to 1 uM incubated for 1 hr followed by C12-iE-DAP stimulation for 30 mins by Western blot analysis; assay type: cell-based; details: filed as antagonist, dose 0.1-1 µM, time 1.5 hrs
T2 sequence (whole entry): T1 sequence (Q9Y239 whole entry)

[4] = target: T3, Nucleotide-binding oligomerization domain-containing protein 1 (Mus musculus) (UniProt Q8BHB0); test: Antagonist activity at NOD1 in mouse BMDM cells assessed as decrease in phosphorylated RIP2 level at 0.1 to 1 uM incubated for 1 hr followed by C12-iE-DAP stimulation for 30 mins by Western blot analysis; assay type: cell-based; details: filed as antagonist, dose 0.1-1 µM, time 1.5 hrs
T3 sequence (whole entry): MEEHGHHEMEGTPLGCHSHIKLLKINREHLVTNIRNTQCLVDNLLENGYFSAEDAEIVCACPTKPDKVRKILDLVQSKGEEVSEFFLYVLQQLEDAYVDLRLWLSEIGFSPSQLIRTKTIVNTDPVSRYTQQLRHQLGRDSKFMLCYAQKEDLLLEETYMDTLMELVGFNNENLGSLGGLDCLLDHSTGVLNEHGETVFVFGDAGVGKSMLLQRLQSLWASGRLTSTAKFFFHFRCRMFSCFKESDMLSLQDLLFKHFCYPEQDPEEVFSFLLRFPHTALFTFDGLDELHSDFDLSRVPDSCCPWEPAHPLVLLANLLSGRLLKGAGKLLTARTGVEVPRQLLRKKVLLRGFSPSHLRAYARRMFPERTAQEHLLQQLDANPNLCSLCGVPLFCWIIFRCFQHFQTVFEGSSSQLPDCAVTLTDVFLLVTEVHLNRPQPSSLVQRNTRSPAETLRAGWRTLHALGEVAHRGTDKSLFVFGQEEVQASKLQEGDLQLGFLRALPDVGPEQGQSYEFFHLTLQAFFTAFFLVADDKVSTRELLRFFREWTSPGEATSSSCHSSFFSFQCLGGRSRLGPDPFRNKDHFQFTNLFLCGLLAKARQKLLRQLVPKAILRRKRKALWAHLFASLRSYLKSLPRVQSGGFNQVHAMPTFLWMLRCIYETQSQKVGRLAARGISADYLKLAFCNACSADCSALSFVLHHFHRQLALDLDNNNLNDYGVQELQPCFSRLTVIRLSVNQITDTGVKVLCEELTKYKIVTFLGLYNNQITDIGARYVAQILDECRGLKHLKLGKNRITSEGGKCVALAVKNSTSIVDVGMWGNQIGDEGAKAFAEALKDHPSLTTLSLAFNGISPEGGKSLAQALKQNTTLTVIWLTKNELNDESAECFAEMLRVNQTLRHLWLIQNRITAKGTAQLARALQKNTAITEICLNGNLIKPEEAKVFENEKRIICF

[5] = tested on: THP-1; test: Anti-inflammatory activity in human THP-1 cells assessed as decrease in TNF-alpha mRNA level at 0.1 uM pretreated for 1 hr followed by C12-iE-DAP stimulation for 2 hrs by RT-qPCR analysis relative to control; assay type: functional; parameters: scale not given: the % may be the effect or the level left; details: time 3 hrs
[6] = tested on: THP-1; test: Anti-inflammatory activity in human THP-1 cells assessed as decrease in CXCL8 mRNA level at 5 uM pretreated for 1 hr followed by infection with Helicobacter pylori for 2 hrs by RT-qPCR analysis; assay type: functional, cell-based; details: time 3.0 hrs
[7] = tested on: AGS; test: Anti-inflammatory activity in human AGS cells assessed as decrease in CXCL8 mRNA level at 1 to 5 uM pretreated for 1 hr followed by infection with Helicobacter pylori for 2 hrs by RT-qPCR analysis; assay type: functional, cell-based; details: dose 1-5 µM, time 3.0 hrs
[8] = Cmax in C57BL/6 mouse at 2 mg/kg, iv by LC-MS/MS analysis; assay type: ADME, organism-based; details: in vivo
[9] = Clearance in C57BL/6 mouse at 2 mg/kg, iv by LC-MS/MS analysis; assay type: ADME, organism-based; details: in vivo
[10] = Volume of distribution at steady state in C57BL/6 mouse at 2 mg/kg, iv by LC-MS/MS analysis; assay type: ADME, organism-based; details: in vivo, read-out: Vdss
[11] = Half life in C57BL/6 mouse at 20 mg/kg, po by LC-MS/MS analysis; assay type: ADME, organism-based; details: in vivo
[12] = tested on: Mus musculus; test: Anti-inflammatory activity in C57BL/6 mouse assessed as inhibition in serum keratinocyte chemoattractant level at 12.5 to 50 mg/kg, po pretreated with compound for 15 mins followed by C12-iE-DAP administration measured after 2 hrs by ELISA relative to control; assay type: functional; details: dose 12.5-50 mg/kg, time 135 min, 2.25 h
[13] = tested on: Mus musculus; test: Anti-inflammatory activity in C57BL/6 mouse model of Helicobacter pylori-induced gastric inflammation assessed as inhibition in gastric keratinocyte chemoattractant level pretreated orally with compound upto 24 hrs followed by infection of Helicobacter pylori measured upto 72 hrs; assay type: functional, organism-based; details: dose 12.5-50 mg/kg, route po, time <= 96.0 hrs

In the case of `CS(=O)(=O)c1ccc2nc(Cl)n(-c3ccc(Cl)c(NS(=O)(=O)c4c(F)cccc4F)c3)c(=O)c2c1`, the IC50 [1] is reported as 0.8 nM, the Activity [2] is reported as “Non-toxic” and the inhibition [3] is reported as “Active”. For the same molecule, the inhibition [4] was “Active”, the Activity [5] was ~100% and the Activity [6] was “Active”. For the same molecule, the Activity [7] was “Active”, the Cmax [8] was 234 ng/mL and the clearance [9] was 474 mL/min/kg. For the same molecule, the Vd [10] was 1.33 L/kg, the half-life [11] was 3.15 h and the “inhibition (INH)” value [12] was ~77%. For the same molecule, the inhibition [13] was “Dose-dependent-effect; Exhibited Superior Efficacy Compared To Compound C”.
